Assay results as given in US5756545A, “Biphenysulfonamide matrix metal alloproteinase inhibitors” (priority 1997, dated 1998).

Columns and labels:
Type in all cases: biochemical
[1] = target: gelatinase A-catalytic domain; assay: gelatinase A catalytic domain hydrolysis of thiopeptolide, GA CD (T); conditions: thiopeptolide substrate
Source text: (§1) Table I below presents inhibitory activity for representative invention compounds of Formula I. In the table, GA CD (T) refers to gelatinase A-catalytic domain hydrolysis of thiopeptolide substrate; GA CD (Gel) refers to gelatinase A-catalytic domain hydrolysis of gelatin substrate; SCD (T) refers to stromelysin catalytic domain hydrolysis of thiopeptolide.

[2] = target: gelatinase A-catalytic domain; assay: gelatinase A catalytic domain hydrolysis of gelatin, GA CD (Gel); conditions: gelatin substrate
Source text: as §1

[3] = target: T1, stromelysin catalytic domain (Homo sapiens, UniProt P08254); assay: stromelysin catalytic domain hydrolysis of thiopeptolide, SCD (T); conditions: thiopeptolide substrate
T1 construct: stromelysin catalytic domain hydrolysis of thiopeptolide
Source text: as §1

full-length collagenase = target: T2, full-length collagenase (Homo sapiens, UniProt P03956); assay: full-length collagenase hydrolysis of thiopeptolide substrate (FLC); conditions: full-length enzyme
T2 construct: full-length collagenase hydrolysis of thiopeptolide substrate (FLC)
T2 sequence (P03956 100-469): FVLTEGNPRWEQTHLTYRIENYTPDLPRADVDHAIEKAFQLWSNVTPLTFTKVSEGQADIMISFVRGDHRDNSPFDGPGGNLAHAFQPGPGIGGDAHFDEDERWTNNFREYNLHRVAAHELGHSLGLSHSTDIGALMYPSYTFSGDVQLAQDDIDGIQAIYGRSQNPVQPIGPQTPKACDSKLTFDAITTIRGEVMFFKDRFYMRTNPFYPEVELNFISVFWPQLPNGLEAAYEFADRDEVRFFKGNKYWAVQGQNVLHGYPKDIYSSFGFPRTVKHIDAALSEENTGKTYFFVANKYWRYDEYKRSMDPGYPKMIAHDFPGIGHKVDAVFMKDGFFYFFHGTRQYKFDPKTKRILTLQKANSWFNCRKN
Source text: The compounds were additionally evaluated for their ability to inhibit full-length collagenase hydrolysis of thiopeptolide substrate (FLC) and full-length gelatinase B (FLGB) hydrolysis of thiopeptolide.

T1 sequence (P08254 100-272 limits assumed): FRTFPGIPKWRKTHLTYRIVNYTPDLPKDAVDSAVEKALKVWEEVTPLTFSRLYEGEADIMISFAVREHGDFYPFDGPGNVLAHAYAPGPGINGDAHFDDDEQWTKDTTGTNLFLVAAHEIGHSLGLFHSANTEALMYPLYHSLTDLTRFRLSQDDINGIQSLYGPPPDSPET

IC50 [1] [nM]	IC50 [2] [nM]	IC50 (full-length collagenase) [µM]	Structure (SMILES)	IC50 [3] [nM]
19	22	–	C[C@H](NS(=O)(=O)c1ccc(-c2ccc(Br)cc2)cc1)C(=O)O [Example 13, (S)-2-(4'-Bromo-biphenyl-4-sulfonylamino)-propionic Acid]	–
2	14	–	COc1ccc(-c2ccc(S(=O)(=O)N[C@H](C(=O)O)C(C)C)cc2)cc1 [Example 15, (S)-2-(4'-Methoxy-biphenyl-4-sulfonylamino)-3-methyl-butyric Acid]	–
21	79	–	O=C(O)CNS(=O)(=O)c1ccc(-c2ccc(Br)cc2)cc1 [Example 12, (4'-Bromo-biphenyl-4-sulfonylamino)-acetic Acid]	–
15	29	–	CC(C)C[C@H](NS(=O)(=O)c1ccc(-c2ccc(Br)cc2)cc1)C(=O)O [Example 14, (S)-2-(4'-Bromo-biphenyl-4-sulfonylamino)-4-methyl-pentanoic Acid]	–
51	94	–	CC(C)[C@H](NS(=O)(=O)c1ccc(-c2ccc(F)cc2)cc1)C(=O)O [Example 16, (S)-2-(4'-Fluoro-biphenyl-4-sulfonylamino)-3-methyl-butyric Acid]	–

The remaining lines, values behind:

Structure (SMILES)	IC50 [1] [nM]	IC50 [2] [nM]	IC50 (full-length collagenase) [µM]	IC50 [3] [nM]
CC(C)[C@H](NS(=O)(=O)c1ccc(-c2ccc(C#N)cc2)cc1)C(=O)O [Example 5, (S)-2-(4'-Cyano-biphenyl-4-sulfonylamino)-3-methyl-butyric Acid]	32	157	–	–
CC(C)[C@H](NS(=O)(=O)c1ccc(-c2ccc(Br)cc2F)cc1)C(=O)O [Example 8, (S)-2-(4'-Bromo-2'-fluoro-biphenyl-4-sulfonylamino)-3-methyl-butyric Acid]	6	19	–	–
CC(C)[C@H](NS(=O)(=O)c1ccc(-c2ccc(C(F)(F)F)cc2)cc1)C(=O)O [Example 19, (S)-3-Methyl-2-(4'-trifluoromethyl-biphenyl-4-sulfonylamino)-butyric Acid]	–	–	–	14
CC(C)[C@H](NS(=O)(=O)c1ccc(-c2cccc(Br)c2)cc1)C(=O)O [Example 7, (S)-2-(3'-Bromo-biphenyl-4-sulfonylamino)-3-methyl-butyric Acid]	731	1300	–	–
CC(C)[C@H](NS(=O)(=O)c1ccc(-c2ccc(Cl)cc2)cc1)C(=O)O [Example 2, (S)-2-(4'-Chloro-biphenyl-4-sulfonylamino)-3-methyl-butyric Acid]	–	–	7.5	–
O=C(O)[C@H](Cc1ccccc1)NS(=O)(=O)c1ccc(-c2ccc(Br)cc2)cc1 [Example 10, (S)-2-(4'-Bromo-biphenyl-4-sulfonylamino)-3-phenyl-propionic Acid]	26	45	–	–
